According to a melting point compilation (Tetko et al.; mined from patent text by program, amines drawn as free bases though some values may be those of a salt):

Row | melting point [°C] | SMILES
1 | 128 to 129 | CC(=O)OC1CCCc2cnc3ccccc3c21 (configuration not stated)
2 | 158 to 160 | c1nnc2c3c(c(NCCCCN4CCCC4)nn12)CCCC3
3 | 187 to 190 | NC(C(=O)O)c1ccc(C(=O)O)cc1N1CCCC1 (configuration not stated)
4 | 262 to 265 | O=C(O)C1Cc2c(ccc3c(=O)c4c(F)cccc4oc23)O1 (configuration not stated)
5 | 110 to 111 | CCCNC(=N)Nc1nc2ccc(OC(F)(F)F)cc2s1
6 | 177 to 179 | COc1cc2c(C)c(C#N)cnc2cc1F
7 | 195 to 207 | Cc1cc2c3c(cc(C)c2[nH]c1=O)C(C)C(C(C)N)O3 (configuration not stated)
8 | 105 to 107 | Nc1c(F)cc(-c2ccccc2)cc1Cl
9 | 201 to 202 | O=C1COc2ccc(C3=Cc4ccc(NCCO)cc4SC3c3ccccc3)cc2N1 (configuration not stated)
10 | 285 to 288 | O=C1CCc2cc3[nH]c(-c4ccncc4)nc3cc2N1
11 | 286 to 288 | Cc1ccc2c(c1)Nc1ncccc1NC2=O
12 | 167 | CCOC(=O)c1c(Cl)c(CC)c(C)[nH]c1=O
13 | 53 to 55 | CCc1cn2nc(C)ccc2n1
14 | 144 to 148 | Cn1nc(-c2c(F)cccc2Cl)nc1-c1ccc([N+](=O)[O-])cc1Cl
15 | 211 to 212 | CCCCNc1c(N)cc(C(=O)O)cc1S(N)(=O)=O
16 | 61 to 61.4 | CC1(C)c2ccccc2C(C)(C)N1Cc1ccccc1
17 | 200 to 201 | Oc1nc2ncnn2c(O)c1-c1c(F)cc(F)cc1F
18 | 145 | CCOC(=O)C1=C(N)N=C(OCC)C(C(=O)OCC)C1c1ccc(-c2ccccc2)cc1 (configuration not stated)
19 | 192 to 193 | CCCCNC(=O)C(Cc1ccccc1)NC(=O)c1cc2cc(Cl)ccc2[nH]1 (configuration not stated)
20 | 66 | CC(=O)OC1CSC(Oc2cc(F)ccc2-c2cccnc2)C(OC(C)=O)C1OC(C)=O (configuration not stated)
21 | 148 to 152 | Cc1cc(N)nc(C)c1-c1ccc(Cl)cc1
22 | 345 to 348 | Cc1[nH]c(-c2ccccc2)c2nc(-c3ccccc3)[nH]c(=O)c12
23 | 104 to 107 | Cc1cc(OCCN2CCC(n3cnc4cccnc43)CC2)nn1-c1ccc(Cl)c(Cl)c1
24 | 179 | COc1ccccc1COc1nc2c(oc3ccccc32)c(-c2ccc3c(c2)OCCO3)c1C(=O)O
25 | 86 to 87 | CCCCCCCN(Cc1ccc(CCC(C)C)cc1)C(=O)Nc1c(OC)ccc2ncccc12

Row | melting point [°C] | SMILES
26 | 160 to 161 | NC(=O)CNC(=O)c1cccc(-c2cccc3sc(Cc4ccc(F)c(F)c4)cc23)c1
27 | 253 to 254 | CCc1nn(Cc2nccn2C)c2c(=O)[nH]c(-c3cc(S(C)(=O)=O)ccc3OCC(C)C)nc12
28 | 70.5 to 72 | CCN(CC)CCOc1ccc2c(=O)c3ccc(OCCN(CC)CC)cc3oc2c1
29 | 80 to 81 | CCCc1c(OCCCCCOc2ccc3c(c2CCC)OC(C(=O)OCC)CC3=O)ccc(C(C)=O)c1O (configuration not stated)
30 | 76 to 77 | O=CC1c2ccccc2CCc2ccccc21
31 | 118 to 119 | CCOC(=O)c1sc(N(C)C)c2c1CCc1cnn(C)c1-2
32 | 166 to 167 | C=Cc1c(C(=O)O)cccc1[N+](=O)[O-]
33 | 246 to 248 | COc1cc(OC)c(-c2nc(C)c(-c3cccnc3)[nH]2)cc1Br
34 | 199 to 200 | CCc1cc2c(ccc(=O)n2Cc2ccc(-c3ccccc3S(N)(=O)=O)cc2)c(CC)n1
35 | 81 to 85 | CCN(CC)C(=O)Nc1ccccc1
36 | 192 to 193 | CC(=O)NC[C@H]1CN(c2ccc(-c3noc(C(F)(F)F)n3)c(F)c2)C(=O)O1
37 | 192 to 195 | Cc1ccccc1NC(=O)C(Cl)Cl
38 | 160 to 162 | CC(c1ccccc1)N1CCC(n2cnc3ccc(Cl)cc3c2=O)CC1 (configuration not stated)
39 | 163 to 166 | CCCCOc1ncc(I)cc1C(N)=O
40 | 118 | Cn1ncnc1COc1nn2c(-c3ccc(F)cc3F)nncc2c1C(C)(C)C
41 | 152 | COc1nc(NC(=O)NS(=O)(=O)c2csc3ccccc23)nc(OC)n1
42 | 150 to 152 | CCOC(=O)c1nc(C2CCCCC2)n(-c2cccc(Cl)c2F)c1Br
43 | 273 | COc1ccc(NN=C2C(=O)Nc3ccc(C4=NNC(=O)SC4C)cc32)cc1 (configuration not stated)
44 | 117 | ON=C(Cn1cncn1)c1ccc(Cl)cc1Cl
45 | 150 to 153 | O=C1CNCCN1c1ccc([N+](=O)[O-])cc1
46 | 142 to 144 | Cn1nnnc1SCCCSc1nnnn1C
47 | 124 to 125 | COc1cc(C(O)c2cnc3ccccc3c2)ccc1OCc1ccccc1 (configuration not stated)
48 | 187 | COCCOCOc1c(C(C)(C)C)cc(C2=NC(=S)N=N2)cc1C(C)(C)C
49 | 127 to 129 | O=C(CCC(=O)N1CCC[C@H]1C(=O)O)c1ccc(F)cc1
50 | 187 to 188 | Cc1cc(C)c2c(c1)c1c(n2Cc2ccc(Cl)cc2)C(CC(=O)O)CCC1 (configuration not stated)

Row | melting point [°C] | SMILES
51 | 251 to 253 | Cc1cc(Oc2ccc(N)cc2)c2cc3c(cc2n1)OCO3
52 | 187 to 190 | N#Cc1ccc2[nH]cc([C@H]3CC[C@@H](N4CC(Oc5cccc(F)c5)C4)CC3)c2c1
53 | 105 | Cn1nnc(-c2cccc([N+](=O)[O-])c2)n1
54 | 135 to 136 | CCOC(=O)C(NC(C)=O)(C(=O)OCC)[C@@H]1CC(=O)C[C@H]1NC(=O)OC(C)(C)C (relative stereo)
55 | > 250 | CC(=O)NNc1ccnc2c(NC(=O)c3c(Cl)cccc3Cl)cc(C)c(C)c12
56 | 120 to 121 | CCOC(=O)C1=C(COCCO)NC(C)=C(C(=O)OC)C1c1cccc(Cl)c1Cl (configuration not stated)
57 | 211 to 213 | O=C(NC(=O)c1ccc2ncccc2c1)NC1CCN(Cc2ccc3ccccc3c2)CC1
58 | 212 to 213 | COCCc1nc2c(N)nc3cc(-c4cccc(CO)c4)ccc3c2n1CC(C)(C)O
59 | 154 to 155 | CSc1ccc(/C=C2\N=C(C)OC2=O)cc1
60 | 154 to 158 | NC1=NS(=O)N=C1NCCCOc1cc(CN2CCCCC2)ccn1 (configuration not stated)
61 | 127 to 129 | CCCCCCCCCCCCCCCc1cccc(OCC)c1C1NC(=O)NC(C)=C1C(=O)OC (configuration not stated)
62 | 61 to 63 | CCCCCCC(C)Nc1ccc2c(c1)CCN2c1ncnc2cc(OC)c(OC)cc12 (configuration not stated)
63 | 138 to 139 | CCCCc1nc(Cl)c(CC(Cc2ccccc2)C(=O)O)n1Cc1ccccc1Cl (configuration not stated)
64 | 160 to 162 | CCOC(=O)C=C(C)Nc1ccc2nc[nH]c2c1
65 | 144 | CC[C@@H](C[C@H](O)[C@H](CC1CCCCC1)NC(=O)[C@H](Cc1c[nH]cn1)NC[C@H](Cc1ccccc1)NC(=O)OC(C)(C)C)C(C)C
66 | 165 to 166 | COc1ccc(-c2c(Cl)c(Cn3cncn3)nc3sc4c(c23)CCN(Cc2ccccc2)C4)cc1OC
67 | 182 to 183 | Nc1ccccc1NC(=O)c1cc2cccc(OCCO)c2o1
68 | 133 to 135 | CCCC(O)(CCC)c1ccc(Cl)c2nc3n(c12)CCCN3c1ccc(Cl)cc1Cl
69 | 124 to 127 | CSC1=Nc2ccc(Cl)cc2C(=O)N(C)C1
70 | 103 to 105 | CC(=O)NC[C@H]1CN(c2ccc(N3CCSC3)c(F)c2)C(=O)O1
71 | 157 to 159 | COc1ccc(C2=NN(C3CCN(C(=O)c4ccccc4OC)CC3)C(=O)C(C)(C)C2)cc1OC
72 | 134 to 136 | N=C(NCc1ccco1)NN=Cc1c(Cl)cccc1Cl
73 | 97 to 99 | COc1ccc(C(=CC#N)c2cc(OC)c(OC)c(OC)c2)cc1N
74 | 169 to 172 | CN1CCN(c2nc(=NC(=O)NC(C)(C)C)ss2)CC1
75 | 169 to 171 | Nc1c(C(=O)O)cnn1-c1ccc(C(F)(F)F)cc1

Row | melting point [°C] | SMILES
76 | 165 to 168 | COC(=O)Nc1nc2ccc(Sc3ccccc3)cn2c1Br
77 | 153 to 156 | CC1(C)Nc2c(Cl)cccc2NC1=O
78 | 140 to 142 | CC(C)(C)OC(=O)NCCCC(COC(=O)Oc1ccc([N+](=O)[O-])cc1)NC(=O)OCC1c2ccccc2-c2ccccc21 (configuration not stated)
79 | 76 to 79.5 | NC(=O)N(O)CC(=O)N(Cc1cccs1)c1ccc(Br)cc1
80 | 124 | CN1CCN(C(=S)C2(c3ccccn3)CCCS2)CC1 (configuration not stated)
81 | 278 to 279 | COC(=O)C=CC1=C(N)CCC1=O
82 | 39.5 to 42 | CCN(CC)CCNC(=O)N(CCS(=O)(=O)c1ccc(OC)cc1)C(C)C
83 | 128 to 130 | Cc1cccc(C2(O)CCC(=O)N2C)c1 (configuration not stated)
84 | 159 to 160 | CCN1c2ncc(OCc3ccccc3)cc2C(=O)N(C)c2ccc(Cl)nc21
85 | > 300 | O=c1[nH]c2sc(Cl)c(Cl)c2[nH]c1=O
86 | 134 to 136 | CNc1nc(-c2cccc(NC(=O)c3ccc(Cl)c(Cl)c3)c2)c2cc(OC)c(OC)cc2n1
87 | 101 | CN(CCCCNC(=O)NCCSCc1csc(NC(=N)N)n1)CCOC(c1ccccc1)c1ccccc1
88 | 252 to 255 | CCCn1nc2c(N)nc3ncccc3c2c1CC1CCOCC1
89 | 144 | COc1cc(C(=O)Nc2c(C)cccc2C)nn1C
90 | 58 to 59 | [N-]=[N+]=N[C@@H]1c2cc(F)ccc2Oc2ccccc2[C@H]1C[C@@H](O)COC(c1ccccc1)(c1ccccc1)c1ccccc1
91 | 122 to 123 | COC(CNc1nc(-c2ccccc2)c2cc(Cl)ccc2n1)OC
92 | 115 to 120 | O=C(O)c1cc(Cl)c(Cl)c(Cl)n1
93 | 112 to 113 | Cc1oc(-c2ccccc2)nc1CCOc1ccc(C=CC#N)cc1
94 | 176 to 177 | COc1cc2nc(C)c(CO)nc2cc1OC
95 | 89 | CCCCCC[C@H](C)COC(=O)c1ccc(-c2ccc(O)cc2)cc1
96 | 275 to 280 | O=C1c2ccc(Sc3ccc4c(c3)C(=O)N(c3ccccc3)C4=O)cc2C(=O)N1c1ccccc1
97 | 127 to 129 | O=C(O)CCCCCOc1nc(-c2ccccc2)cc(-c2ccccc2)n1
98 | 58 to 60 | O=S(=O)(Cl)CCCCCc1ccc(OCc2ccccc2)cc1
99 | 177 to 179 | O=C(Nc1c(Cl)cccc1Cl)N1CCN(c2cnccn2)CC1

Row | SMILES | melting point [°C]
100 | CN1Cc2c(C(N)=O)ncn2-c2ccc(F)cc2C1=O | 272 to 273
101 | Cc1nc2ccccn2c(=O)c1CCN1CCC(Nc2nc3cncnc3n2Cc2cnccn2)CC1 | 180
102 | N#Cc1nn(-c2c(Cl)cc(C(F)(F)F)cc2Cl)c(Br)c1O | 145 to 151
